According to patent US12655116B2, “Substituted isophthalic acid diamides” (Bayer Aktiengesellschaft, priority 2020, dated 2026):

What was measured:
ABUTH [1] = test: Pre-emergence herbicidal action against ABUTH; format: in vivo, Abutilon theophrasti; conditions: Abutilon theophrasti, 504 h
Summary of the method: (§1)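 Sandy loam pots, seeds covered with soil, then surface-treated with WP or EC formulations at 600–800 l/ha water plus 0.2% wetting agent. Greenhouse, 3 weeks. Percent damage vs untreated controls.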

ALOMY [2] = test: Pre-emergence herbicidal action against ALOMY; format: in vivo, Alopecurus myosuroides; conditions: Alopecurus myosuroides, pre-emergence, 504 h; 320 g/ha; scored visually after 3 weeks, 100% = plants have died, 0% = like control plants
Summary of the method: as §1

AMARE [3] = test: Pre-emergence herbicidal action against AMARE; format: in vivo, Amaranthus retroflexus; conditions: Amaranthus retroflexus, 504 h, 100% = plants have died, 0% = like control plants
Summary of the method: as §1

AVEFA [4] = test: Pre-emergence herbicidal action against AVEFA; format: in vivo, Avena fatua; conditions: Avena fatua, pre-emergence, 504 h; 320 g/ha; scored visually after 3 weeks, 100% = plants have died, 0% = like control plants
Summary of the method: as §1

CYPES [5] = test: Pre-emergence herbicidal action against CYPES; format: in vivo; conditions: Cyperus esculentus, 504 h
Description: Seeds of monocotyledonous and dicotyledonous weed plants and crop plants are laid out in sandy loam soil in wood-fiber pots and covered with soil. The compounds of the invention, formulated in the form of wettable powders (WP) or as emulsion concentrates (EC), are then applied to the surface of the covering soil in the form of an aqueous suspension or emulsion at a water application rate equivalent to 600 to 800 l/ha, with addition of 0.2% wetting agent. After the treatment, the pots are placed in a greenhouse and kept under good growth conditions for the trial plants. The damage to the test plants is scored visually after a test period of 3 weeks by comparison with untreated controls (herbicidal activity in percent (%): 100% activity=the plants have died, 0% activity=like control plants). […] The tables below illustrate, in an illustrative manner, the post-emergence herbicidal action of the compounds of the invention, the herbicidal activity being stated in percent.

ECHCG [6] = test: Pre-emergence herbicidal action against ECHCG; format: in vivo, Echinochloa crus-galli; conditions: Echinochloa crus-galli, 504 h, 320 g/ha
Summary of the method: as §1

HORMU [7] = test: Pre-emergence herbicidal action against HORMU; format: in vivo, Hordeum murinum; conditions: Hordeum murinum, 504 h; 320 g/ha, pre-emergence
Summary of the method: as §1

MATIN = test: Pre-emergence herbicidal action against MATIN; format: in vivo, Matricaria inodora; conditions: Tripleurospermum inodorum, 504 h, dosage 320 g/ha
Summary of the method: as §1

SETVI [8] = test: Pre-emergence herbicidal action against SETVI; format: in vivo, Setaria viridis; conditions: Setaria viridis, 504 h, dosage 320 g/ha
Summary of the method: as §1

STEME [9] = test: Pre-emergence herbicidal action against STEME; format: in vivo, Stellaria media; conditions: Stellaria media, 504 h, dosage 320 g/ha
Summary of the method: as §1

VERPE [10] = test: Pre-emergence herbicidal action against VERPE; format: in vivo, Veronica persica; conditions: Veronica persica, 504 h, dosage 320 g/ha
Summary of the method: as §1

VIOTR [11] = test: Pre-emergence herbicidal action against VIOTR; format: in vivo, Viola tricolor; conditions: Viola tricolor, 504 h, dosage 320 g/ha
Summary of the method: as §1

ABUTH [12] = test: Post-emergence herbicidal action against ABUTH; format: in vivo, Abutilon theophrasti; conditions: Abutilon theophrasti, 504 h, visual assessment about 3 weeks after treatment vs untreated controls
Summary of the method: (§2)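 Herbicidal action is a visual percentage rating (0% = as untreated control, 100% = plants dead) made roughly 3 weeks after treatment. Plants were grown in sandy loam in the greenhouse and treated at the one-leaf stage, 2 to 3 weeks post-sowing. Treatment was a foliar spray of wettable-powder or emulsion-concentrate formulations at 600 to 800 l/ha water plus 0.2% wetting agent.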

ALOMY [13] = test: Post-emergence herbicidal action against ALOMY; format: in vivo, Alopecurus myosuroides; conditions: Alopecurus myosuroides, 504 h, dosage 80 g/ha, visual assessment about 3 weeks after treatment vs untreated controls
Summary of the method: as §2

AMARE [14] = test: Post-emergence herbicidal action against AMARE; format: in vivo, Amaranthus retroflexus; conditions: Amaranthus retroflexus, 504 h, 80 g/ha, visual assessment about 3 weeks after treatment, 100% = plants have died, 0% = like control plants
Summary of the method: as §2

AVEFA [15] = test: Post-emergence herbicidal action against AVEFA; format: in vivo, Avena fatua; conditions: Avena fatua, 504 h, 80 g/ha, visual assessment about 3 weeks after treatment, 100% = plants have died, 0% = like control plants
Summary of the method: as §2

CYPES [16] = test: Post-emergence herbicidal action against CYPES; format: in vivo, Cyperus esculentus; conditions: 80 g/ha, visual assessment about 3 weeks after treatment, 100% = plants have died, 0% = like control plants
Procedure: Seeds of monocotyledonous and dicotyledonous weed and crop plants are laid out in sandy loam soil in wood-fiber pots, covered with soil and cultivated in a greenhouse under good growth conditions. 2 to 3 weeks after sowing, the test plants are treated at the one-leaf stage. The compounds of the invention, formulated in the form of wettable powders (WP) or as emulsion concentrates (EC), are then sprayed onto the green parts of the plants in the form of an aqueous suspension or emulsion at a water application rate equivalent to 600 to 800 l/ha, with addition of 0.2% wetting agent. After the test plants have been left to stand in the greenhouse under optimal growth conditions for about 3 weeks, the action of the preparations is assessed visually in comparison to untreated controls (herbicidal action in percent (%): 100% activity=the plants have died, 0% activity=like control plants). […] The tables below illustrate, in an illustrative manner, the post-emergence herbicidal action of the compounds of the invention, the herbicidal activity being stated in percent.

ECHCG [17] = test: Post-emergence herbicidal action against ECHCG; format: in vivo, Echinochloa crus-galli; conditions: Echinochloa crus-galli, 504 h, dosage 80 g/ha
Summary of the method: as §2

HORMU [18] = test: Post-emergence herbicidal action against HORMU; format: in vivo, Hordeum murinum; conditions: Hordeum murinum, 504 h, dosage 80 g/ha
Summary of the method: as §2

SETVI [19] = test: Post-emergence herbicidal action against SETVI; format: in vivo, Setaria viridis; conditions: Setaria viridis, 504 h
Summary of the method: as §2

STEME [20] = test: Post-emergence herbicidal action against STEME; format: in vivo, Stellaria media; conditions: Stellaria media, 504 h, 80 g/ha
Summary of the method: as §2

VERPE [21] = test: Post-emergence herbicidal action against VERPE; format: in vivo, Veronica persica; conditions: Veronica persica, 504 h
Summary of the method: as §2

VIOTR [22] = test: Post-emergence herbicidal action against VIOTR; format: in vivo, Viola tricolor; conditions: Viola tricolor, 504 h
Summary of the method: as §2

Cc1nnc(NC(=O)c2ccc(C(F)(F)F)c(C(N)=O)c2Cl)o1 [Example 6-253]
pest or weed control at 80 g/ha (ABUTH [1]; 80 g/ha, scored visually after 3 weeks vs untreated controls (100% = plants have died, 0% = like control plants)): 90%
pest or weed control at 320 g/ha (ABUTH [1]; Dosage: 320 g/ha, scored visually after 3 weeks, 100% = plants have died, 0% = like control plants): 100%
pest or weed control at 320 g/ha (ALOMY [2]): 90%
pest or weed control at 80 g/ha (AMARE [3]; 80 g/ha, scored visually after 3 weeks vs untreated controls): 80%
pest or weed control at 320 g/ha (AMARE [3]; 320 g/ha, scored visually after 3 weeks): 90%
pest or weed control at 320 g/ha (AVEFA [4]): 90%
pest or weed control at 20 g/ha (CYPES [5]; 20 g/ha, scored visually after 3 weeks, 100% = plants have died, 0% = like control plants): 80%
pest or weed control at 80 g/ha (CYPES [5]; 80 g/ha, scored visually after 3 weeks, 100% = plants have died, 0% = like control plants): 90%
pest or weed control at 320 g/ha (CYPES [5]; 320 g/ha): 100%
pest or weed control at 320 g/ha (ECHCG [6]): 100%
pest or weed control at 320 g/ha (HORMU [7]): 90%
pest or weed control at 320 g/ha (MATIN): 100%
pest or weed control at 320 g/ha (SETVI [8]): 100%
pest or weed control at 320 g/ha (STEME [9]): 100%
pest or weed control at 320 g/ha (VERPE [10]): 100%
pest or weed control at 320 g/ha (VIOTR [11]): 100%
pest or weed control at 5 g/ha (ABUTH [12]; dosage 5 g/ha): 100%
pest or weed control at 20 g/ha (ABUTH [12]; dosage 20 g/ha): 100%
pest or weed control at 80 g/ha (ABUTH [12]; dosage 80 g/ha): 100%
pest or weed control at 80 g/ha (ALOMY [13]): 80%
pest or weed control at 80 g/ha (AMARE [14]): 100%
pest or weed control at 80 g/ha (AVEFA [15]): 80%
Post-emergence action at 80 g/ha against CYPES in % (CYPES [16]): 80%
pest or weed control at 80 g/ha (ECHCG [17]): 90%
pest or weed control at 80 g/ha (HORMU [18]): 90%
pest or weed control at 20 g/ha (SETVI [19]; dosage 20 g/ha): 90%
pest or weed control at 80 g/ha (SETVI [19]; dosage 80 g/ha): 100%
pest or weed control at 80 g/ha (STEME [20]): 90%
pest or weed control at 20 g/ha (VERPE [21]; 20 g/ha): 80%
pest or weed control at 80 g/ha (VERPE [21]; 80 g/ha): 90%
pest or weed control at 20 g/ha (VIOTR [22]; 20 g/ha): 80%
pest or weed control at 80 g/ha (VIOTR [22]; 80 g/ha): 80%
